# Test results as given in patent US20250186485A1, “HYDRATION COMPOSITIONS” (priority 2017, published 2025).
# Like-named read-outs stand apart in the source and are kept apart here.
# How the values were obtained:
# [1] = test system: patients with disabling intermittent claudication or rest pain of the lower extremities
# Excerpt: (§1) Dehydration often occurs in elderly population. Incidence of peripheral artery disease in patients over 60 years of age ranges between 18 and 29%. It was hypothesized that dehydration aggravates symptoms of PAD. Patients with disabling claudication or rest pain resistant to standard medical therapy were instructed to drink between 2,500 to 3000 milliliters of water according to their body mass.
# (§2) Patients without a past history of Congestive Heart Failure or renal insufficiency were included in the following example without interrupting exercises they were performing or medication they were receiving. Ninety percent of the patients were receiving aspirin and 100% of them Statins and Cilostazol at least for 5 months before starting the protocol. (See Table 2 below.)
# (§3) All patients belonged to category IIb of Fontaine and grade 1 category 2 and 3 of Rutherford.
# (§4) Protocol: Complete physical examination and laboratory work were performed. Ankle-brachial pressures were recorded. • 1) Graphics of skin temperature were obtained in both feet using a Flir Thermal Camera (Flir Systems Inc.) in a room at 24 degrees Celsius. (See FIGS. 3 and 4) • 2) Time and distance to claudication using a treadmill at 3 miles per hour was recorded. • 3) Subjective classification of pain intensity from […] was documented. (0=no pain, 10=intense pain) • 4) Skin color-including the absence and/or reduction in abnormal variations in skin color, skin tone and skin elasticity.
# (§5) Duplex of the abdominal artery, iliac arteries and infra-inguinal vessels was performed in every patient. Patients were followed weekly and underwent regular blood tests. Patients were recommended to drink 3,000 milliliters of water a day; fluids like tea and milk were counted in addition to water. This recommendation was the part of the protocol and it was carefully controlled.
# Statistical analysis: software utilized: SPSS 20 Qualitative variables were expressed in percentages. Quantitative variables were analyzed with the test of Shapiro-Wilk. Continuous variables were expressed as median, 95% confidence intervals and interquartile intervals. Wilcoxon Signed Rank Test was also utilized P<0.05 was considered significant.
# [2] = test system: patients with disabling intermittent claudication or rest pain of the lower extremities; remark: listed apart in the source
# Excerpt: as §1, §2, §3, §4, §5
# [3] = test system: patient with right foot rest pain and disabling claudication; details: Case 2; for walking distance without pain: three liters of fluid a day
# Excerpt: A patient came to the consult with right foot rest pain, pallor and coldness up to the knee. […] Rest pain started one week before the consult and their claudication became disabling one month before. The patient was drinking less than 700 milliliters a day of fluids. […] Before proceeding to amputation, proper hydration was achieved. […] Three liters of fluid a day was recommended and the patient was discharged.
# [4] = test system: patient with intermittent claudication of the lower extremities and abdominal angina; details: Case 1
# Experimental: A person complaining of 10 step intermittent claudication of the lower extremities, abdominal angina that produced a 15 Kg weight loss, and an abnormal renal function with a creatinine of 3.1 mg per deciliter.
# The patient was having intermittent claudication for years but in the last four months it became disabling.
# On physical exam patient had no palpable pulses.
# The patient was admitted, stool cultures performed and patient was rehydrated with precaution considering their heart condition. […] After four days the patient was discharged and asked to drink 2.5 liters of fluids a day.
structure (smiles),measurement,setting,value
O [water],pain intensity (final) Median,"[1]; 0=no pain, 10=intense pain, CI 1 to 2.341, initial median 6 (6 to 8), p<0,0001",2
same,final Median dorsal temperature of the first right toe after treatment,"[1]; FIG. 5, median, 95% confidence interval 29.300 to 31.468, initial median 29.95 (28 to 31)",30.65
same,final Median plantar temperature of the first right toe after treatment,"[1]; FIG. 6, median, CI 28.464 to 30.302, initial median 28.50 (27.366 to 29.939), p:0.0347",29.25
same,Median temperature of the plantar aspect of the left foot after hydration,"[1]; after 6 weeks of hydration, before 28.40 (26.82-30), p: 0.030",29.20 (26.70-30.92) ° C.
same,Median temperature of the plantar aspect of the right foot after 6 weeks,"[1]; after 6 weeks of hydration, before 28.70 (27-31), p: 0.011",29 (27.70-31) ° C.
same,Median temperature of the dorsum of the left foot after 6 weeks,"[1]; after 6 weeks of hydration, before 29.40 (27.72-31.30), p: 0.009",30.20 (27.70-31.70) ° C.
same,Median temperature of the dorsum of the right foot after hydration,"[1]; after 6 weeks of hydration, before protocol 29.95 (27.60-31.15), p: 0.02",30.35 (28.12-31.60) ° C.
same,"Decrease of pain sensation recorded, percentage of patients",[1]; after treatment,91.7 % of patients
same,Patients with improvement of pain sensation of more than 50%,[1]; after treatment,80 % of the patients
same,Median ankle/brachial index after 6 weeks of treatment,"[1]; initial median 0.6 (0.50 to 0.69), p<0,0001",0.75 (0.62 to 0.80)
same,"Final pain intensity sensation, patient 15","[1]; single patient 15, final intake of water 3000 ml, initial 6",0
same,"Distance to claudication (final), patient 15","[1]; single patient 15, final intake of water 3000 ml, initial 300 mts",6000 mts
same,"Final ankle/brachial index, patient 15","[1]; single patient 15, final intake of water 3000 ml, initial index 0.77",0.83
same,"distance to claudication, final Median","[1]; treadmill 3 miles per hour, end of 6 weeks, CI 382.947 to 800, initial median 100 (50 to 200), p<0.0001",535
same,"Time to claudication after hydration, Median","[1]; treadmill, 95% CI 4.195 to 9.209, initial median 1.3 (0.7 to 2.500), p<0.0001",6.3 min
same,status related to lower extremity ischemia,[2]; 35 patients in whom proper hydration was achieved,all of them improved
same,ulcers in the toes and ankle,"[2]; anecdotal, drinking 3 liters of water a day",reversed the lesions
same,"Time and distance to claudication, cutaneous temperature, ankle-brachial pressure and subjective pain sensation",[2]; patients who drank more than 2.5 liters of fluids a day (35 of the 36 patients),improved significantly
same,walking distance without pain,[3]; after seven months,walked four kilometers without pain
same,walking distance without pain,[3]; after three months,walked three blocks without pain
same,rest pain of the right foot,[3]; two days after proper hydration was achieved,pain subsided
same,walking distance without pain,"[4]; 14 months after last admission, 2.5 liters of fluids a day",more than 4 blocks
same,walking distance without pain,"[4]; after rehydration in hospital, second day",50 meters
